From publication PMC9416745, “The Effect of 1,2,4-Triazole-3-thiol Derivatives Bearing Hydrazone Moiety on Cancer Cell Migration and Growth of Melanoma, Breast, and Pancreatic Cancer Spheroids” (Pharmaceuticals, 2022)

Columns and labels:
[1] = test system: IGR39, MDA-MB-231 and Panc-1 tumour spheroids; assay: 3D cell cultures (spheroids), stated for all three spheroid types; format: cell-based, human; conditions: 10 µM, 8 days of incubation
Procedure: (§1) Cancer cell spheroids were formed using the magnetic 3D Bioprinting method, as described elsewhere. Briefly, melanoma IGR39, triple-negative breast cancer MDA-MB-231 cells, pancreatic cancer Panc-1 cells, and human fibroblasts at 70% confluency in a 6-well plate were incubated with Nanoshuttle (n3D Biosciences, Inc., Houston, TX, USA) for 8 h at 37°C in a humidified atmosphere containing 5% CO2. Then cells were trypsinized, centrifuged, and seeded into an ultra-low attachment 96-well plate in a volume of 100 µL (1.5 × 10^3 cancer cells and 1.5 × 10^3 human fibroblasts/well). The plate was placed on a magnetic drive and incubated for 2 days at 37°C in a humidified atmosphere containing 5% CO2. Then the fresh medium containing 10 µM of the tested compound was added to the wells. Spheroids were captured every two days using the Olympus IX73 inverted microscope (OLYMPUS CORPORATION, Tokyo, Japan). Quantitative analysis of compound anticancer activity in spheroids was performed using ImageJ, version 1.53o (National Institutes of Health, USA) and Microsoft Office Excel 2016 software (Microsoft Corporation, Redmond, WA, USA).
(§2) On the last day of incubation, 10 µL of WST-1 reagent (Sigma-Aldrich Co, St. Louis, MO, USA) was added to each well with spheroids. After 10 h of incubation, 50 µL of liquid from each well were transferred to the new 96-well plate and the absorbance was measured at 460 and 530 nm using a multi-detection microplate reader. Spheroid cell viability was calculated using a formula provided in Section 3.2.2.

[2] = test system: IGR39, MDA-MB-231 and Panc-1 cell lines; assay: MTT cell viability assay, result stated for all tested cancer cell lines together; format: cell-based, human; conditions: 72 h; for EC50: Homo sapiens, range over cancer cell lines, read-out: EC50 values against the tested cancer cell lines (range)
Procedure: (§3) The effect of synthesized compounds on cell viability was studied using 3-(4,5-dimethylthiazol-2-yl)-2,5-diphenyltetrazolium bromide (MTT; Sigma-Aldrich Co., St Louis, MO, USA) assay, as described elsewhere. Briefly, IGR39, MDA-MB-231, Panc-1, and HF cells were seeded in 96-well plates (Corning) in triplicate at a volume of 100 μL (IGR39, MDA-MB-231 and Panc-1: 4 × 10^3 cells/well; HF: 5 × 10^3 cells/well). After 24 h, cells were treated with 50 μM of tested compounds. After 72 h, the MTT reagent was added and cells were incubated for 4 h. Then the medium was aspirated, and the formed formazan crystals were dissolved in 100 μL DMSO (Sigma-Aldrich Co., St. Louis, MO, USA). The absorbance was measured at 570 and 630 nm using a multi-detection microplate reader. The compound effect on cell viability was calculated using the formula:(1) Relative cell viability (%)=A−A0/ANC−A0 where
(§4) • A—mean of absorbance of the tested compound, • A0—mean of absorbance of blank (no cells, positive control), and • ANC—mean of absorbance of negative control (only cells, no treatment).
(§5) The compound serial dilutions from 50 µM to 1.56 µM were made in a medium and added to the cells in triplicates. The EC50 value representing the concentration of a compound causing 50% reduction of cancer cell metabolic activity was calculated using the Hill equation.

[3] = test system: human malignant melanoma cell line IGR39; assay: MTT cell viability assay, IGR39; format: cell-based; conditions: 50 µM, 72 h
Procedure: as §3, §4, §5

[4] = test system: IGR39, MDA-MB-231 and Panc-1 cell migration; assay: 'Wound healing' cell migration assay, stated for all tested cell lines; format: cell-based, human; conditions: 10 µM, compared to the control
Procedure: (§6) Briefly, melanoma IGR39, human triple-negative breast cancer MDA-MB-231, and pancreatic carcinoma Panc-1 cells were seeded in 24-well plates at a density of 6 × 10^4 cells/well and incubated for 48 h in previously described cell culture medium at 37°C in a humidified atmosphere containing 5% CO2. Then the scratch was made using a 100 µL pipette tip. Cells were washed once with PBS, and the fresh medium containing 10 µM of compounds 4, 7, 8, 10, 14, 17, and 18 was added. Medium containing 0.1% DMSO was used as a negative control. Cells were incubated at 37 °C in a humidified atmosphere containing 5% CO2.
(§7) The ‘Wounds’ were captured at the intervals of 0 h, 24 h, 48 h and 72 h (only for the Panc-1 cell line) from scratch under the phase contrast microscope at a 4× magnification. The wound area was analysed using the ImageJ program (National Institute of Health, Bethesda, MD, USA).

melanoma IGR39 spheroids = assay: 3D cell cultures (spheroids), IGR39; format: cell-based, human; conditions: 10 µM, 8 days of incubation
Procedure: as §1, §2

Panc-1 cells = assay: MTT, effect of 10 µM compound on Panc-1 cell viability (Procedure S1); format: cell-based; conditions: Homo sapiens, after 72 h
Procedure: (§8) The ‘Wound healing’ assay was used to evaluate compound activity on cell migration. […] The effect of this concentration on cell viability after 24 h, 48 h and 72 h was studied in separate experiments (Figures S58–60) using the MTT assay (the procedure is described in Supplementary Materials).
(§9) Procedure S1. Evaluation of 10 µM compound concentration effect on cell line viability.
(§10) The effect of 10 µM compounds on cell viability was studied using 3-(4,5-dimethylthiazol-2-yl)-2,5-diphenyltetrazolium bromide (MTT; Sigma-Aldrich Co., St Louis, MO, USA) assay. IGR39, MDA-MB-231, and Panc-1 cells were seeded in 96-well plates (Corning) in triplicates at a volume of 100 µL at 4 × 10^3 cells/well). After 24 h, the cells were treated with 10 µM of compounds 4, 7, 8, 10, 14, 17, and 18. After 24 h, 48 h and 72 h (only Panc-1 cells), the MTT reagent has been added and cells were incubated for 4 h. Then the medium was aspirated, and the formed formazan crystals were dissolved in 100 µL DMSO (Sigma-Aldrich Co., St. Louis, MO, USA). The absorbance was measured at 570 and 630 nm using a multi-detection microplate reader. Compound effect on cell viability was calculated according to a formula:
(§11) Relative cell viability ሺ%ሻ = A− A଴
(§12) A – mean of absorbance of tested compound, A0 – mean of absorbance of blank (no cells, positive control), ANC – mean of absorbance of negative control (only cells, no treatment).

[5] = test system: MDA-MB-231 cell migration; assay: 'Wound healing' cell migration assay, MDA-MB-231; format: cell-based, human; conditions: 10 µM, both after 24 h and 48 h of incubation
Procedure: as §6, §7

IGR39 cells = assay: MTT, effect of 10 µM compound on IGR39 cell viability (Procedure S1); format: cell-based; conditions: Homo sapiens, IGR-39, after 48 h of incubation
Procedure: as §8, §9, §10, §11, §12

[6] = test system: human triple-negative breast cancer MDA-MB-231; assay: MTT cell viability assay, MDA-MB-231; format: cell-based; conditions: 50 µM, 72 h
Procedure: as §3, §4, §5

melanoma A375 cell = test system: melanoma A375 cell; parameters: method as in PMID 21700700; conditions: cited from earlier work
melanoma cell = test system: melanoma cell; parameters: method as in PMID 27572607; conditions: cited from earlier work

| EC50 [2] [µM] | melting point [°C] | Structure (SMILES) | activity in 3D cell cultures (spheroids) [1] | melanoma IGR39 spheroid growth (melanoma IGR39 spheroids) | viability at 10 µM (Panc-1 cells) [%] | MDA-MB-231 cell migration [5] | viability at 10 µM (IGR39 cells) [%] | further results |
| --- | --- | --- | --- | --- | --- | --- | --- | --- |
| 2 to 17 | 252 to 253 | O=C(CSc1nnc(CCNc2ccccc2)n1-c1ccccc1)NN=C1C(=O)Nc2ccccc21 [Compound 4, N′-(2-oxoindolin-3-ylidene)-2-((4-phenyl-5-(2-(phenylamino)ethyl)-4H-1,2,4-triazol-3-yl)thio)acetohydrazide] | most active | mostly inhibited | 74.3 ± 3.4 | – | – | selectivity against the melanoma IGR39 cell line (screening) [3]: moderate selectivity; effect on cell migration [4]: did not possess activity |
| 2 to 17 | 215 to 216 | O=C(CSc1nnc(CCNc2ccccc2)n1-c1ccccc1)NN=Cc1ccc[nH]1 [Compound 14, N′-((1H-pyrrol-2-yl)methylene)-2-((4-phenyl-5-(2-(phenylamino)ethyl)-4H-1,2,4-triazol-3-yl)thio)acetohydrazide] | most active | mostly inhibited | – | migrated slower | 67.9 ± 1.8 | activity against the IGR39 cell line (screening) [3]: least active; activity towards the triple-negative breast cancer cell line (screening) [6]: relatively higher activity |
| – | – | O=C(CSc1nnc(CCNc2ccccc2)n1-c1ccccc1)NN=Cc1ccccc1O [Compound 17, N′-(2-hydroxybenzylidene)-2-((4-phenyl-5-(2-(phenylamino)ethyl)-4H-1,2,4-triazol-3-yl)thio)acetohydrazide] | most active | began to disintegrate | 79.7 ± 3.8 | migrated slower | 76 ± 7.2 | activity against all tested cancer cell lines (screening) ([2]; 50 µM): most active |
| – | – | CN(C)/N=N/c1[nH]cnc1C(N)=O [Dacarbazine] | – | – | – | – | – | concentrations inhibiting melanoma A375 cell proliferation (melanoma A375 cell): 25 to 100 µM |
| – | – | CC(C)(C)c1nc(-c2cccc(NS(=O)(=O)c3c(F)cccc3F)c2F)c(-c2ccnc(N)n2)s1 [dabrafenib] | – | – | – | – | – | concentration reducing melanoma cell viability (melanoma cell): nanomolar |
